The values that follow come from patent US11208412B2 (DAEGU-GYEONGBUK MEDICAL INNOVATION FOUNDATION, priority 2017, dated 2021).

Where two headings read alike, the source gives them in different places.

Holding throughout (experiment): Kinase selectivity, DiscoverX scanMAX Kinase assay panel (% control)
Common to all, as to type: binding

Assay [1] addresses T1, kinases of the scanMAX Kinase assay panel (Homo sapiens, UniProt P29323).
T1 construct: purchased DiscoverX Co. (contract measurement) scanMAX Kinase assay panel
T1 sequence (P29323 19-1055): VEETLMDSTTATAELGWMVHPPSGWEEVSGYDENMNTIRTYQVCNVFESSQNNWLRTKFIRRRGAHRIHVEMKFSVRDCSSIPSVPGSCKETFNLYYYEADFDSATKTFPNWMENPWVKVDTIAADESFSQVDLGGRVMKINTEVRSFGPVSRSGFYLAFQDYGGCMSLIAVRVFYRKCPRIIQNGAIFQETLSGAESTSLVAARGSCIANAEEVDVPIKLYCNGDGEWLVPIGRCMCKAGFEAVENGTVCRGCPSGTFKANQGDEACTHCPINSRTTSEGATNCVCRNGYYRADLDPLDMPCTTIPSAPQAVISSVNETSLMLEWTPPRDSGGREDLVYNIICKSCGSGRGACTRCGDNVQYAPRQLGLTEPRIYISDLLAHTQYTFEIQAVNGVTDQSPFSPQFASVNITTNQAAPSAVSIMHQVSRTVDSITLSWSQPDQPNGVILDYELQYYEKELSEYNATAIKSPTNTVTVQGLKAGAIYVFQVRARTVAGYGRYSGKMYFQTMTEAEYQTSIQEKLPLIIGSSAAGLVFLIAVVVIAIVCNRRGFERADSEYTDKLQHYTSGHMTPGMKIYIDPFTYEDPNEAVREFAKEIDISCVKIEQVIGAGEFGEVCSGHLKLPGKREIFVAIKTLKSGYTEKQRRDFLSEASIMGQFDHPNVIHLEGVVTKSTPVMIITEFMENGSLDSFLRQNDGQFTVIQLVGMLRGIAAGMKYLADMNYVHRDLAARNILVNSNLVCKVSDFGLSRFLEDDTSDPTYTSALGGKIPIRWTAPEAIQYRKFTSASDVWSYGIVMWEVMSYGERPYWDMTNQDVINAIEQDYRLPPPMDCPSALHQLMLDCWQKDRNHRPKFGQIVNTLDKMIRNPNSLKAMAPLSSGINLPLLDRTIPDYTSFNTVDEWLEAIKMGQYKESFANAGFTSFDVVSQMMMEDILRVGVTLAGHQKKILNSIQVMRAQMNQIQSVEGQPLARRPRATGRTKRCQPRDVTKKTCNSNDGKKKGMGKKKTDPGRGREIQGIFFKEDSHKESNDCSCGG
As to conditions: EPHB2; 1 uM. In outline:
(§1)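 A 1 uM DMSO solution of compound was applied across the panel kinases, and results were expressed as % control relative to DMSO (100%) and a positive control (0%).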

Assay [2] deals with T2, kinases of the scanMAX Kinase assay panel (Homo sapiens, UniProt P53350).
T2 construct: purchased DiscoverX Co. (contract measurement) scanMAX Kinase assay panel
The note with it: PLK1; 1 uM. In outline:
as §1

The target of assay [3] is T3, kinases of the scanMAX Kinase assay panel (Homo sapiens, UniProt Q00535).
T3 construct: purchased DiscoverX Co. (contract measurement) scanMAX Kinase assay panel
The note with it: CDK5; 1 uM. In outline:
as §1

Assay [4] concerns the target T4, kinases of the scanMAX Kinase assay panel (Homo sapiens, UniProt Q14289).
T4 construct: purchased DiscoverX Co. (contract measurement) scanMAX Kinase assay panel
As to conditions: PYK2; 1 uM. In a few lines: as §1

Assay [5] deals with T5, kinases of the scanMAX Kinase assay panel (Homo sapiens, UniProt Q15349).
T5 construct: purchased DiscoverX Co. (contract measurement) scanMAX Kinase assay panel
The note with it: 1 uM in DMSO. In a few lines:
as §1

Assay [6] addresses T6, kinases of the scanMAX Kinase assay panel (Homo sapiens, UniProt Q8NE63).
T6 construct: purchased DiscoverX Co. (contract measurement) scanMAX Kinase assay panel
T6 sequence (Q8NE63 1-616): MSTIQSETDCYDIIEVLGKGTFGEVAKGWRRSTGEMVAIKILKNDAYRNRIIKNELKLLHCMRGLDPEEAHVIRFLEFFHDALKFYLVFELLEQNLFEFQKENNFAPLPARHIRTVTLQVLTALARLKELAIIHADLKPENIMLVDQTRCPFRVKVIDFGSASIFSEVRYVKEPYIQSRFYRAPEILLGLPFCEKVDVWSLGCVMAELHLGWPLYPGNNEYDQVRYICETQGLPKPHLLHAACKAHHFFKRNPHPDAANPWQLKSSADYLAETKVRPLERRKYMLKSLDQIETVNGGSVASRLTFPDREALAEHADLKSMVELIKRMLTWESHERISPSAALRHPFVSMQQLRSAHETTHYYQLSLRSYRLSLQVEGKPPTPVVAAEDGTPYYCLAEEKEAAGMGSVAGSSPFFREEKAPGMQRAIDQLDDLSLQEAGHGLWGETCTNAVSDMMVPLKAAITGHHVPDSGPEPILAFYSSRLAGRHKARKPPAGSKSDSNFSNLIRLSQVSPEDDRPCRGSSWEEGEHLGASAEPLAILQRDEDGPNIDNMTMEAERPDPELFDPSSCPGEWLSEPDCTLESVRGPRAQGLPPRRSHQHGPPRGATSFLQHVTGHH
As to conditions: HIPK4; 1 uM. In a few lines:
as §1

Assay [7] has as its target T7, kinases of the scanMAX Kinase assay panel (Homo sapiens, UniProt Q96D53).
T7 construct: purchased DiscoverX Co. (contract measurement) scanMAX Kinase assay panel
T7 sequence (Q96D53 1-544): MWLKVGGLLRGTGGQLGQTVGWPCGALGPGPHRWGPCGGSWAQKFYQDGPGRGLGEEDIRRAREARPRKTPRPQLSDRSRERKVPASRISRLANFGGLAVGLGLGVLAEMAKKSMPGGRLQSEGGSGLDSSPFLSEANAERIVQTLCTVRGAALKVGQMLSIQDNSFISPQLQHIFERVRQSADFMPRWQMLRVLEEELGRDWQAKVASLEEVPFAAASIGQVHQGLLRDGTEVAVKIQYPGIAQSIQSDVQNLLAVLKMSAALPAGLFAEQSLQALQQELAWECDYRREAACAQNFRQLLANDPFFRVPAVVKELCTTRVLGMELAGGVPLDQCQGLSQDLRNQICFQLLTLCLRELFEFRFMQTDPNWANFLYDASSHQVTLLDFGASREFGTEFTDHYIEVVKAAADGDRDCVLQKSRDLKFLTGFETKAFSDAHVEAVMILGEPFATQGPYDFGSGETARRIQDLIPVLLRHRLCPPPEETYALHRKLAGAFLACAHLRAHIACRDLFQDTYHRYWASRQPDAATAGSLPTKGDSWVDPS
The note with it: ADCK4; 1 uM. In a few lines: as §1

[8] abbreviates: kinase RSK3(Kin.Dom.1-N-terminal), read-out: % control, RSK3(Kin.Dom.1-N-terminal).
[9] abbreviates: kinase RSK3(Kin.Dom.2-C-terminal), read-out: % control, RSK3(Kin.Dom.2-C-terminal).

T5 sequence (Q15349 whole entry): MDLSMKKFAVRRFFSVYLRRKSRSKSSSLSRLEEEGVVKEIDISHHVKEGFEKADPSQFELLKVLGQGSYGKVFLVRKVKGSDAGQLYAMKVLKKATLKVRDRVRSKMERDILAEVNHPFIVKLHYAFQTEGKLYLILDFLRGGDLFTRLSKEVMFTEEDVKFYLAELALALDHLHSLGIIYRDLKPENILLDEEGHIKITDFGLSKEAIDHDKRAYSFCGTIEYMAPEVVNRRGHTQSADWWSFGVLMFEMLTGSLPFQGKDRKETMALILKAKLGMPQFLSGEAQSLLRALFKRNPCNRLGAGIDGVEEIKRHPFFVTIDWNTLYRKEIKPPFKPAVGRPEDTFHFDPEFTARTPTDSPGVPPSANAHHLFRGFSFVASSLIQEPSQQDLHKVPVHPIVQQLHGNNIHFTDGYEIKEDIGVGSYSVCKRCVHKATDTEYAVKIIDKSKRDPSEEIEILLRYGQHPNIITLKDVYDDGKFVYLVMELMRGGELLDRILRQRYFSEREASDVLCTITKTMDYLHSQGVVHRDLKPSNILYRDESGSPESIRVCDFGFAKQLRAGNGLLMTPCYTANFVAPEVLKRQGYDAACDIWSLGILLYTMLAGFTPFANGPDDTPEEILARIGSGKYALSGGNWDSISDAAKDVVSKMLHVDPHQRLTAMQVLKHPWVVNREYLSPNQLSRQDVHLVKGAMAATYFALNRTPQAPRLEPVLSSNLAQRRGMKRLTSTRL
T4 sequence (Q14289 whole entry): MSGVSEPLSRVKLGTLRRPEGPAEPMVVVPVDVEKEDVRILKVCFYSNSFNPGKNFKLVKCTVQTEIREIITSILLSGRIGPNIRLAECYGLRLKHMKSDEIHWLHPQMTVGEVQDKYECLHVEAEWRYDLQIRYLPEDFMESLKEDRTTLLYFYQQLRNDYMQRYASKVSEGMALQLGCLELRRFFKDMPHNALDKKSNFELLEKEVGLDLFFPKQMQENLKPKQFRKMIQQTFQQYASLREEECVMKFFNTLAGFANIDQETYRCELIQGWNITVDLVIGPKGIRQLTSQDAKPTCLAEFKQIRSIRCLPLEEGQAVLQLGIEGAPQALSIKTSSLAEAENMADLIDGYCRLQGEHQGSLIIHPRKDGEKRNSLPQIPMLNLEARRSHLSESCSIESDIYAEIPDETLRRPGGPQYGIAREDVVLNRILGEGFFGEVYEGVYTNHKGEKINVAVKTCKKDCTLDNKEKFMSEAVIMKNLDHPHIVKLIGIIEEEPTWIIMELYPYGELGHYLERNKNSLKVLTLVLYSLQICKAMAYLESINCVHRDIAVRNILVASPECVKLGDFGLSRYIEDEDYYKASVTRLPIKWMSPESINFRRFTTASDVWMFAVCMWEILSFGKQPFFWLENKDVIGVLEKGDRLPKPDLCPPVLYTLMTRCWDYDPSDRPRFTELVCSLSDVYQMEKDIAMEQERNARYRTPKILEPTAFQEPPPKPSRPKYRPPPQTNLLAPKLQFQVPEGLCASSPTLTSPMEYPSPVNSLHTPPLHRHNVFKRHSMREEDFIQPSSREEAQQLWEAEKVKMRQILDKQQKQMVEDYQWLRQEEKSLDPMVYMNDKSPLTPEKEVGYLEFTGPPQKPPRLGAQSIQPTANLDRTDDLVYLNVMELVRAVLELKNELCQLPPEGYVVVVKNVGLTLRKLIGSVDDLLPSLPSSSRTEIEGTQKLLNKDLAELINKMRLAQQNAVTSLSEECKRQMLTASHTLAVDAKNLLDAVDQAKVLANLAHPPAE
T3 sequence (Q00535 whole entry): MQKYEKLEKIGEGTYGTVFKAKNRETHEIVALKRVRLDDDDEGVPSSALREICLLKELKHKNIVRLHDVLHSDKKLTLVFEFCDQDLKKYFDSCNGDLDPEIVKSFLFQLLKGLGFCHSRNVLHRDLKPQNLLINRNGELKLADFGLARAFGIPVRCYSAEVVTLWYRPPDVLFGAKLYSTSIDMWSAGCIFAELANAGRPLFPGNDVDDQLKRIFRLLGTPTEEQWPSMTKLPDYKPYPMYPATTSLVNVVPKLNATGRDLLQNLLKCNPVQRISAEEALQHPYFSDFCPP
T2 sequence (P53350 whole entry): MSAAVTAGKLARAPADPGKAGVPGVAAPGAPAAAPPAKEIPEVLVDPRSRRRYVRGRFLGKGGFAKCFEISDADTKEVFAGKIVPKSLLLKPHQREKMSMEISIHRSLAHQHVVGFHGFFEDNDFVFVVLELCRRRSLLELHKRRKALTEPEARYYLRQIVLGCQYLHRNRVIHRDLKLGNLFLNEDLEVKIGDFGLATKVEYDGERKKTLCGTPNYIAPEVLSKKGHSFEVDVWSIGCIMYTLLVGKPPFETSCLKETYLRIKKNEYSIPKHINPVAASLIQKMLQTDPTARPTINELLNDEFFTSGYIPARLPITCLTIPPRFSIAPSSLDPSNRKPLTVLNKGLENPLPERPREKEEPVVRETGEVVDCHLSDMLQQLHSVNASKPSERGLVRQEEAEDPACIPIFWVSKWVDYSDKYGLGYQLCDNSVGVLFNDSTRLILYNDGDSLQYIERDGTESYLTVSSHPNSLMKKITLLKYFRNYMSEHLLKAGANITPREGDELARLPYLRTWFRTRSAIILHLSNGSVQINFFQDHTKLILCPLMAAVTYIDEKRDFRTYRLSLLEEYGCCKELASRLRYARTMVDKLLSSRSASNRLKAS

With `CNc1nc(Nc2ccc(C(=O)N3CCOCC3)cc2OC)nc2[nH]cc(C#N)c12` [Example 1, 2-((2-methoxy-4-(morpholine-4-carbonyl)phenyl)amino)-4-(methylamino)-7H-pyrrolo[2,3-d]pyrimidine-5-carbonitrile], the remaining binding at 1 µM was determined as 99% in assay [1]; 14% in assay [2]; 96% in assay [3]; 25% in assay [4]; 90% in assay [5] (setting [8]); 23% in assay [5] (setting [9]). Besides, the remaining binding at 1 µM in assay [6] is 95%; in assay [7] it was 100%.
In the case of `CC1(Nc2nc(Nc3cnn([C@H]4CCN(C5COC5)C[C@@H]4F)c3Cl)nc3[nH]cc(C#N)c23)CC1` [Example 52, 2-((5-chloro-1-((3S,4S)-3-fluoro-1-(oxetane-3-yl)piperidine-4-yl)-1H-pyrazole-4-yl)amino)((1-methylcyclopropyl)amino)-7H-pyrrolo[2,3-d]pyrimidine-5-carbonitrile], the remaining binding at 1 µM is 70% in assay [1]; 100% in assay [2]; 63% in assay [3]; 1.2% in assay [4]; 4.3% in assay [5] (setting [8]); 28% in assay [5] (setting [9]). In addition, the remaining binding at 1 µM in assay [6] was determined as 39%; in assay [7], 76%.
Regarding `CCNc1nc(Nc2ccc(C(=O)N3CCC(N4CCOCC4)CC3)cc2OC)nc2[nH]cc(C(F)(F)F)c12` [Example 104, (4-((4-(ethylamino)-5-(trifluoromethyl)-7H-pyrrolo[2,3-d]pyrimidine-2-yl)amino)-3-methoxyphenyl)(4-morpholinopiperidine-1-yl)methanone], the remaining binding at 1 µM in assay [1] was 91%; in assay [2], 65%; in assay [3] it was 100%; in assay [4] it was 2.8%; in assay [5] (setting [8]), 100%; in assay [5] (setting [9]), 66%. In addition, the remaining binding at 1 µM in assay [6] stood at 45%; in assay [7] it was 100%.
